Data published in PubChem BioAssay AID1963964 (Molecular Pharmacology Branch, DTP, NCI, 2024).

System: 997726-040-R-J2-PDC tumor spheroids, viability
Assay: Anticancer human tumor 997726-040-R-J2-PDC patient-derived squamous cell lung carcinoma cell line growth inhibition [PI3K]
Conditions: spheroids with HUVEC and MSC; for IC50: curve of first compound; for viability, T/C: stronger effect = lower value
Method in brief: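 Stroma-containing spheroids: tumor line, pooled-donor HUVEC, hMSC. Treatments: targeted agents with PI3K inhibitors. Dosing: clinically relevant, half-log spacing, 10 microM ceiling without known Cmax. Read-out: cell viability.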

[1] = second compound 0.0316 µM, first compound 0.0316 µM
[2] = second compound 0.0316 µM, first compound 0.1 µM
[3] = second compound 0.0316 µM, first compound 0.316 µM
[4] = second compound 0.0316 µM, first compound 1 µM
[5] = second compound 0.0316 µM, first compound 3.16 µM
[6] = second compound 0.0316 µM, first compound 10 µM
[7] = second compound 0.1 µM, first compound 0.0316 µM
[8] = second compound 0.1 µM, first compound 0.1 µM
[9] = second compound 0.1 µM, first compound 0.316 µM
[10] = second compound 0.1 µM, first compound 1 µM
[11] = second compound 0.1 µM, first compound 3.16 µM
[12] = second compound 0.1 µM, first compound 10 µM
[13] = second compound 0.316 µM, first compound 0.0316 µM
[14] = second compound 0.316 µM, first compound 0.1 µM
[15] = second compound 0.316 µM, first compound 0.316 µM
[16] = second compound 0.316 µM, first compound 1 µM
[17] = second compound 0.316 µM, first compound 3.16 µM
[18] = second compound 0.316 µM, first compound 10 µM
[19] = second compound 1 µM, first compound 0.0316 µM
[20] = second compound 1 µM, first compound 0.1 µM
[21] = second compound 1 µM, first compound 0.316 µM
[22] = second compound 1 µM, first compound 1 µM
[23] = second compound 1 µM, first compound 3.16 µM
[24] = second compound 1 µM, first compound 10 µM
[25] = second compound 3.16 µM, first compound 0.0316 µM
[26] = second compound 3.16 µM, first compound 0.1 µM
[27] = second compound 3.16 µM, first compound 0.316 µM
[28] = second compound 3.16 µM, first compound 1 µM
[29] = second compound 3.16 µM, first compound 3.16 µM
[30] = second compound 3.16 µM, first compound 10 µM
[31] = second compound 10 µM, first compound 0.0316 µM
[32] = second compound 10 µM, first compound 0.1 µM
[33] = second compound 10 µM, first compound 0.316 µM
[34] = second compound 10 µM, first compound 1 µM
[35] = second compound 10 µM, first compound 3.16 µM
[36] = second compound 10 µM, first compound 10 µM
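Further: spheroids exposed to compounds for seven days before readout.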

Cn1cnc2c(F)c(Nc3ccc(Br)cc3Cl)c(C(=O)NOCCO)cc21 + CC(Nc1ccc2c(c1)OCCn1cc(N3C(=O)OCC3C(F)F)nc1-2)C(N)=O
IC50 (second compound 0.00316 µM): 154 nM
IC50 (second compound 0.01 µM): 82.4 nM
IC50 (second compound 0.0316 µM): 13.8 nM
IC50 (second compound 0.1 µM): < 9.49 nM
IC50 (second compound 0.316 µM): < 9.49 nM
IC50 (second compound 1 µM): < 9.49 nM
viability, T/C (second compound 0.00316 µM, first compound 0.00949 µM): 70.5%
viability, T/C (second compound 0.00316 µM, first compound 0.03 µM): 65%
viability, T/C (second compound 0.00316 µM, first compound 0.0949 µM): 58.1%
viability, T/C (second compound 0.00316 µM, first compound 0.3 µM): 39.1%
viability, T/C (second compound 0.00316 µM, first compound 0.949 µM): 35.8%
viability, T/C (second compound 0.00316 µM, first compound 3 µM): 29.1%
viability, T/C (second compound 0.01 µM, first compound 0.00949 µM): 62%
viability, T/C (second compound 0.01 µM, first compound 0.03 µM): 59%
viability, T/C (second compound 0.01 µM, first compound 0.0949 µM): 47.6%
viability, T/C (second compound 0.01 µM, first compound 0.3 µM): 40.8%
viability, T/C (second compound 0.01 µM, first compound 0.949 µM): 39.2%
viability, T/C (second compound 0.01 µM, first compound 3 µM): 30.9%
viability, T/C (second compound 0.0316 µM, first compound 0.00949 µM): 49.1%
viability, T/C (second compound 0.0316 µM, first compound 0.03 µM): 50.8%
viability, T/C (second compound 0.0316 µM, first compound 0.0949 µM): 42.2%
viability, T/C (second compound 0.0316 µM, first compound 0.3 µM): 30.2%
viability, T/C (second compound 0.0316 µM, first compound 0.949 µM): 28.2%
viability, T/C (second compound 0.0316 µM, first compound 3 µM): 21.1%
viability, T/C (second compound 0.1 µM, first compound 0.00949 µM): 36.6%
viability, T/C (second compound 0.1 µM, first compound 0.03 µM): 42%
viability, T/C (second compound 0.1 µM, first compound 0.0949 µM): 33%
viability, T/C (second compound 0.1 µM, first compound 0.3 µM): 22.1%
viability, T/C (second compound 0.1 µM, first compound 0.949 µM): 21%
viability, T/C (second compound 0.1 µM, first compound 3 µM): 14%
viability, T/C (second compound 0.316 µM, first compound 0.00949 µM): 32.1%
viability, T/C (second compound 0.316 µM, first compound 0.03 µM): 27.9%
viability, T/C (second compound 0.316 µM, first compound 0.0949 µM): 23.7%
viability, T/C (second compound 0.316 µM, first compound 0.3 µM): 20.5%
viability, T/C (second compound 0.316 µM, first compound 0.949 µM): 14%
viability, T/C (second compound 0.316 µM, first compound 3 µM): 15%
viability, T/C (second compound 1 µM, first compound 0.00949 µM): 24.5%
viability, T/C (second compound 1 µM, first compound 0.03 µM): 22.4%
viability, T/C (second compound 1 µM, first compound 0.0949 µM): 21.7%
viability, T/C (second compound 1 µM, first compound 0.3 µM): 20.3%
viability, T/C (second compound 1 µM, first compound 0.949 µM): 15%
viability, T/C (second compound 1 µM, first compound 3 µM): 12.9%

CC1(C)CCC(Nc2ncc(C(F)(F)F)c(-c3c[nH]c4c(P(C)(C)=O)c(C#N)ccc34)n2)CN1 (stereo unspecified) + CC(Nc1ncnc2nc[nH]c12)c1cc2cccc(Cl)c2c(=O)n1-c1ccccc1
IC50 (second compound 0.0316 µM): 496 nM
IC50 (second compound 0.1 µM): 3510 nM
IC50 (second compound 0.316 µM): 3300 nM
IC50 (second compound 1 µM): 31.6 nM
IC50 (second compound 3.16 µM): < 31.6 nM
IC50 (second compound 10 µM): < 31.6 nM
viability, T/C [1]: 48.9%
viability, T/C [2]: 45.7%
viability, T/C [3]: 50%
viability, T/C [4]: 59.5%
viability, T/C [5]: 65.9%
viability, T/C [6]: 29.6%
viability, T/C [7]: 53.8%
viability, T/C [8]: 51.6%
viability, T/C [9]: 49.3%
viability, T/C [10]: 48.5%
viability, T/C [11]: 55.5%
viability, T/C [12]: 33%
viability, T/C [13]: 52.3%
viability, T/C [14]: 47.6%
viability, T/C [15]: 45.3%
viability, T/C [16]: 53.3%
viability, T/C [17]: 56%
viability, T/C [18]: 26.5%
viability, T/C [19]: 49.2%
viability, T/C [20]: 46.2%
viability, T/C [21]: 45.2%
viability, T/C [22]: 44.7%
viability, T/C [23]: 52.2%
viability, T/C [24]: 27.3%
viability, T/C [25]: 42.1%
viability, T/C [26]: 40.7%
viability, T/C [27]: 36%
viability, T/C [28]: 39.3%
viability, T/C [29]: 53.8%
viability, T/C [30]: 21.7%
viability, T/C [31]: 32%
viability, T/C [32]: 29.2%
viability, T/C [33]: 31.5%
viability, T/C [34]: 37.7%
viability, T/C [35]: 39.8%
viability, T/C [36]: 14.1%

C[C@@H](NC(=O)c1ncnc(N)c1Cl)c1ncc(C(=O)Nc2cc(C(F)(F)F)c(Cl)cn2)s1 + CC(Nc1ncnc2nc[nH]c12)c1cc2cccc(Cl)c2c(=O)n1-c1ccccc1
IC50 (second compound 0.0316 µM): > 10000 nM
IC50 (second compound 0.1 µM): > 10000 nM
IC50 (second compound 0.316 µM): > 10000 nM
IC50 (second compound 1 µM): > 10000 nM
IC50 (second compound 3.16 µM): > 10000 nM
IC50 (second compound 10 µM): 4740 nM
viability, T/C [1]: 123%
viability, T/C [2]: 112%
viability, T/C [3]: 113%
viability, T/C [4]: 120%
viability, T/C [5]: 97.2%
viability, T/C [6]: 84.1%
viability, T/C [7]: 108%
viability, T/C [8]: 129%
viability, T/C [9]: 118%
viability, T/C [10]: 118%
viability, T/C [11]: 103%
viability, T/C [12]: 68.7%
viability, T/C [13]: 114%
viability, T/C [14]: 114%
viability, T/C [15]: 128%
viability, T/C [16]: 119%
viability, T/C [17]: 96.8%
viability, T/C [18]: 70.1%
viability, T/C [19]: 114%
viability, T/C [20]: 102%
viability, T/C [21]: 108%
viability, T/C [22]: 113%
viability, T/C [23]: 91.5%
viability, T/C [24]: 72.8%
viability, T/C [25]: 97%
viability, T/C [26]: 90.9%
viability, T/C [27]: 83.8%
viability, T/C [28]: 79.2%
viability, T/C [29]: 79.5%
viability, T/C [30]: 61.5%
viability, T/C [31]: 61.4%
viability, T/C [32]: 62.4%
viability, T/C [33]: 60.2%
viability, T/C [34]: 59.5%
viability, T/C [35]: 52.3%
viability, T/C [36]: 43.9%
